Values of other authors as cited in patent USRE37727E1, “Method for treating nerve injury pain associated with shingles” (priority 1989, dated 2002).

Details: venous; reported range

CCN(CC)CC(=O)Nc1c(C)cccc1C [lidocaine]
minimum concentrations of lidocaine for anti-arrhythmic effects: 0.6 to 2.0 µg/mL
